Legend:
[1] = system: Plasmodium yoelii NS (chloroquine-resistant strain); assay: Oral administration test of polysaccharide fraction in combination with antimalarial agent in rodent malaria parasite (chloroquine-resistant strain) infection model; assay type: in vivo, Plasmodium yoelii NS in ICR mice; conditions: 2×10^4 infected erythrocytes; AN 3 mg/kg/day oral four times; SCE-4 600 mg/kg/day oral from 7 days before infection; versus control group (Dunnett's test)
Method: A procedure was performed in the same manner as in Example 4, except that the number of P. yoelii NS-infected erythrocytes intravenously injected to the tail vein was changed from 2×10^6 cells to 2×10^4 cells.
SCE-4 and AN were orally administered to ICR mice each day in a dose of 500 μL/mouse using a feeding needle. A dosage of SCE-4 was 600 mg/kg/day, and AN was dissolved in a 10% dimethylsulfoxide (DMSO) aqueous solution containing 0.5% Tween 80 and administered in a dosage of 3 mg/kg/day. The administration of SCE-4 was started 7 days before parasite infection and continued even after the plasmodium infection. The administration of AN was started 2 hours after the parasite infection and continued until Day 3 after the plasmodium infection (four times in total). In addition, SCE-4 was administered 3 hours or more after the administration of AN.
To a control group, water and a 10% DMSO aqueous solution containing 0.5% Tween 80 were orally administered, and to AN3 groups, water and a 10% DMSO aqueous solution of AN containing 0.5% Tween 80 were orally administered, and to SCE-4+AN3 groups, an SCE-4 aqueous solution and a 10% DMSO aqueous solution of AN containing 0.5% Tween 80 were orally administered.
Calculation was performed in the same manner as in Example 3.

[2] = system: IL-6 production in mouse Peyer's patch cells; assay: IL-6 production induction test in Peyer's patch cell culture (ELISA); assay type: cell-based, C3H/HeJ mouse; conditions: Example 2, FIG. 4; sample untreated, versus control
Method: To a 25 mM acetate buffer (pH 4.5, 1 mg/mL) solution of the α-glucan fraction (1.5 mg) or the heteroglycan fraction (1.5 mg) were added exo-α-L-arabinofuranosidase (20 μL), exo-β-D-(1→3)-galactanase (20 μL), and endo-β-D-(1→4)-galactanase (5 μL), followed by enzyme reaction under conditions of 37° C. for 2 days. The obtained digest was heat-treated for 30 seconds in a boiling water bath to deactivate the enzyme. To a half of this enzyme reaction liquid (shown as “1,3/1,4-galactanase” in FIG. 4) was further added dextranase (0.25 units), followed by incubation for 2 days at 37° C., and subsequently, the enzyme was deactivated under the same conditions as the above to obtain an enzyme reaction liquid (shown as “dextranase” in FIG. 4). These reaction liquids were preserved at −20° C. until use. Preparation and culture of mouse Peyer's patch cells were performed in the same manner as in Test Example 1. An anti-mouse IL-6 primary antibody diluted to 1 μg/mL with a 50 mM carbonate-bicarbonate buffer (pH 9.6) (100 μL/well) was dispensed into an ELISA plate (Immuno-Maxisorp, Nunc) and incubated at 4° C. overnight. […] The developed yellow color was measured using a microplate reader (Multiskan JX, Thermo Electron Corp.) (measurement wavelength; 405 nm, blank wavelength; 492 nm).

| Compound | infection rate of erythrocytes (Parasitemia), Day 4 and Day 5 [1] | amount of IL-6 production [2] |
| --- | --- | --- |
| C[C@H]1[C@H](OC(=O)CCC(=O)O)O[C@@H]2O[C@@]3(C)CC[C@H]4[C@H](C)CC[C@@H]1[C@@]24OO3 [AN, artesunate] | the infection rate significantly decreased on Day 4 and Day 5 as compared with the control group |  |
| dextran |  | no change in the amount of IL-6 production was observed |

From patent US9737558B2, “Peyer's patch activator” (priority 2012, dated 2017)
